In patent publication US20130029967A1, “Fused Imidazo [3,2 - D] Pyrazines as P13 Kinase Inhibitors” (Centro Nacional de Investigaciones Oncologicas (CNIO), priority 2009, published 2013):

Tested on: phospho-AKT (Ser473) in Osteosarcoma U2OS cells
Assay: PI3K cellular activity, ELISA (phospho-AKT Ser473)
Assay type: cell-based
Conditions: Homo sapiens, cellular p-AKT
Protocol: Cell culture: The cell lines were obtained from the American Type Culture Collection (ATCC). U2OS (human osteosarcoma) was cultured in Dulbecco's modified Eagle's medium (DMEM). PC3 (human prostate carcinoma), MCF7 (human breast cardinoma), HCT116 (human colon carcinoma), […], U251 (human glyoblastoma) were grown in RPMI. All media were supplemented with 10% fetal bovine serum (FBS) (Sigma) and antibiotics-antimycotics. Cell were maintained in a humidified incubator at 37° C. with 5% CO2 and passaged when confluent using trypsin/EDTA.
Activity was measured as endogenous levels of phospho-AKT (Ser473) protein. Osteosarcoma U2OS cells were plated in 96 Poly-D-Lysine coating tissue culture plates (18.000 cells/well). After the treatment with serial dilutions of the compound during 3 h, the cells were fixed directly in the wells with 4% paraformaldehide. After fixing, individual wells went through the same series of steps used for a conventional immunoblot: including blocking with 5% BSA, incubation with 1/1000 of primary antibody-AKT ([…]) in PBS containing 5% BSA at 4° C. overnight (Cell Signalling), washing and incubation with second antibody HRP-anti-mouse IgG for 1 h at RT (Amersham). After the addition of SuperSignal ELISA Femto maximum sensitivity chemiluminescent substrate (Pierce) the results were read in a luminescence plate reader (Victor).

Row | IC50 [nM] | Compound
1 | 101 | Nc1ncc(-c2cn3c4c(nc3c(N3CCOCC3)n2)CN(C(=O)Nc2cccc(F)c2)CC4)cn1 [6-45]
2 | 385 | COc1ccc(CNC(=O)N2CCc3nc4c(N5CCOCC5)nc(-c5cnc(N)nc5)cn4c3C2)cc1 [2-96]
3 | 443 | Nc1ncc(-c2cn3c4c(nc3c(N3CCOCC3)n2)CCN(C(=O)Nc2cccc(F)c2)C4)cn1 [2-91]
4 | 853 | CC(C)S(=O)(=O)N1CCc2nc3c(N4CCOCC4)nc(-c4cnc(N)nc4)cn3c2C1 [2-59]
5 | 1230 | CCNC(=O)N1CCc2nc3c(N4CCOCC4)nc(-c4cnc(N)nc4)cn3c2C1 [2-38]

Molecular target: T1, PI3K (p110α/p85α) (Homo sapiens, UniProt P42336)
T1 construct: purchased Carna Biosciences 07CBS-0402A
Assay: PI3K activity assay (ADP Hunter Plus)
Assay type: biochemical
Conditions: PI3Kα; class symbols; read-out: PI3K α IC50 (semi-quantitative)
Protocol: The kinase activity was measured by using the commercial ADP Hunter™ Plus assay available from DiscoveRx (#33-016), which is a homogeneous assay to measure the accumulation of ADP, a universal product of kinase activity. […] Reaction was carried out for 1 hour at 25° C. Reagent A and B were sequentially added to the wells and plates were incubated for 30 min at 37° C. […] Values were normalized against the control activity included for each enzyme (i.e., 100% PI3 kinase activity, without compound). These values were plot against the inhibitor concentration and were fit to a sigmoid dose-response curve by using the Graphed software.

T1 sequence (P42336 whole entry): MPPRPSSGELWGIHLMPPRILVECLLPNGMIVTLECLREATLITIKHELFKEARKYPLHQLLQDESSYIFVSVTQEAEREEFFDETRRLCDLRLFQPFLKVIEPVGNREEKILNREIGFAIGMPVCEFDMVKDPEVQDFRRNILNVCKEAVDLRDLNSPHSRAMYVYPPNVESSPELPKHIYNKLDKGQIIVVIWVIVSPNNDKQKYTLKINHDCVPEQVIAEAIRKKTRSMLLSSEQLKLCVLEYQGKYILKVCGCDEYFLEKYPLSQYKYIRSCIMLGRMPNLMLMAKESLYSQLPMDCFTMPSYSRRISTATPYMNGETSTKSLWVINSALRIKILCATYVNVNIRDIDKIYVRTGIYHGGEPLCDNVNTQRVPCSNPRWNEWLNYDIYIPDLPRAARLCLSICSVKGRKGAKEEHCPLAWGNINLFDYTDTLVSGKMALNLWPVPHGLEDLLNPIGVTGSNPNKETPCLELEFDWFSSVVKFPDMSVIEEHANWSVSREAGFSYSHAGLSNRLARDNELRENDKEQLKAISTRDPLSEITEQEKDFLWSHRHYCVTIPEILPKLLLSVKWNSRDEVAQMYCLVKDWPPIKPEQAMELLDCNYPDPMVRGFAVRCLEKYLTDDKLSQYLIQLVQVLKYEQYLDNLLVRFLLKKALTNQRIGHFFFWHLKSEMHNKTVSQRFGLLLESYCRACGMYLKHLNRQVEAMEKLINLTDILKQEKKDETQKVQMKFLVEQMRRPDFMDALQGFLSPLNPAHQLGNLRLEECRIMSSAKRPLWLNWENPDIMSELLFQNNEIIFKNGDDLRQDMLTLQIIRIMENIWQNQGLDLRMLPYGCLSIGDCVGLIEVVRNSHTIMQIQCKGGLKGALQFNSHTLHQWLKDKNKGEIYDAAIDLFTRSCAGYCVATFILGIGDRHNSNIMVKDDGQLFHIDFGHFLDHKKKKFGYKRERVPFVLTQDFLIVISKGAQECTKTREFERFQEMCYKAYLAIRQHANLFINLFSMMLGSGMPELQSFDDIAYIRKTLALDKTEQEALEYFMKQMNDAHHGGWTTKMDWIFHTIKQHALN
T1 sequence (P27986 whole entry partner): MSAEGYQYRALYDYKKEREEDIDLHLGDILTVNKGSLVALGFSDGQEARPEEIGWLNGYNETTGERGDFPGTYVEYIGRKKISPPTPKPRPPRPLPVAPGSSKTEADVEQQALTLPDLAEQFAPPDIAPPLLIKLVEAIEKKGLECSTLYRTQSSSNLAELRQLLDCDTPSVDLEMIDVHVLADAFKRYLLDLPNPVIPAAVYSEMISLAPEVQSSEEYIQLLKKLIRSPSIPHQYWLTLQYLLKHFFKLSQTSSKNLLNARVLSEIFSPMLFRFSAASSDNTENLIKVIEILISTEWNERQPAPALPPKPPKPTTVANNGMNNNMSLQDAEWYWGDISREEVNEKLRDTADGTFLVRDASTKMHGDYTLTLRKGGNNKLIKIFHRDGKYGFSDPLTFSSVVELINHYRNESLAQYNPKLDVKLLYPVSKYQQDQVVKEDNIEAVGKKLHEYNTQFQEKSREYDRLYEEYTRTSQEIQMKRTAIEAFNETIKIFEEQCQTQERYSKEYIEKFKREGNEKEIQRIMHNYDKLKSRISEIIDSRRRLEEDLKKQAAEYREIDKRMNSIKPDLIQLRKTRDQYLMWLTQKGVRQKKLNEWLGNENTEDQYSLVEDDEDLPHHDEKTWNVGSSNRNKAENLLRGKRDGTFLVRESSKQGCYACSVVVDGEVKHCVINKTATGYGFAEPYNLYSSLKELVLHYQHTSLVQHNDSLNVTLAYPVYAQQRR

Row | IC50 [nM] | Compound
6 | > 1000 | CCOC(=O)N1CCc2nc3c(N4CCOCC4)nc(-c4cccc5[nH]ncc45)cn3c2C1 [2-03, 3-(1H-Indazol-4-yl)-1-morpholin-4-yl-7,8-dihydro-5H-2,4-a,6,9-tetraaza-fluorene-6-carboxylic acid ethyl ester]
7 | > 1000 | CCOC(=O)N1CCc2nc3c(N4CCOCC4)nc(-c4cnc(N)c(C(F)(F)F)c4)cn3c2C1 [2-25]
8 | > 1000 | CCOC(=O)N1CCc2nc3c(N4CCOCC4)nc(-c4c(F)ccc5[nH]ccc45)cn3c2C1 [2-26]
9 | > 1000 | CCOC(=O)N1CCc2nc3c(N4CCOCC4)nc(-c4ccc5[nH]ccc5c4)c(Cl)n3c2C1 [2-29]
10 | > 1000 | c1cc(-c2cn3c4c(nc3c(N3CCOCC3)n2)CCN(Cc2ncc[nH]2)C4)c2cn[nH]c2c1 [2-13]
11 | < 500 | CC(C)NC(=O)N1CCc2nc3c(N4CCOCC4)nc(-c4cnc(N)nc4)cn3c2C1 [2-44]
12 | > 1000 | c1cncc(CN2CCc3nc4c(N5CCOCC5)nc(-c5cccc6[nH]ncc56)cn4c3C2)c1 [2-05]
13 | > 1000 | CCOC(=O)N1CCc2nc3c(N4CCOCC4)nc(-c4cncc(OC)c4)c(Cl)n3c2C1 [2-30]
14 | > 1000 | CCOC(=O)N1CCc2nc3c(N4CCOCC4)nc(-c4cccnc4)c(Cl)n3c2C1 [2-31]
15 | > 1000 | c1cc(-c2cn3c4c(nc3c(N3CCOCC3)n2)CCN(Cc2nccs2)C4)c2cn[nH]c2c1 [2-06]
16 | > 1000 | CCOC(=O)N1CCc2nc3c(N4CCOCC4)nc(-c4cncnc4)cn3c2C1 [2-41]
17 | > 1000 | CS(=O)(=O)c1ccc(CN2CCc3nc4c(N5CCOCC5)nc(-c5cccc6[nH]ncc56)cn4c3C2)cc1 [2-10]
18 | > 1000 | CCOC(=O)N1CCc2nc3c(N4CCOCC4)nc(-c4cccnc4)cn3c2C1 [2-24]
19 | > 1000 | Nc1ncc(-c2cn3c4c(nc3c(N3CCOCC3)n2)CCN(CC2CCOCC2)C4)cn1 [2-36]
20 | > 1000 | CCOC(=O)N1CCc2nc3c(N4CCOCC4)nc(-c4ccc5[nH]ccc5c4)cn3c2C1 [2-22]
21 | > 1000 | CCOC(=O)N1CCc2nc3c(N4CCOCC4)nc(-c4ccc(N)nc4)cn3c2C1 [2-21]
22 | > 1000 | CCOC(=O)C1CCC(N2CCc3nc4c(N5CCOCC5)nc(-c5cnc(N)nc5)cn4c3C2)CC1 (stereo not shown) [2-40]
23 | > 1000 | c1nc(NCC2CC2)ncc1-c1cn2c3c(nc2c(N2CCOCC2)n1)CCN(CC1CC1)C3 [2-47]
24 | > 1000 | c1cc(-c2cn3c4c(nc3c(N3CCOCC3)n2)CCN(CC2CNC2)C4)c2cn[nH]c2c1 [2-14]
25 | > 1000 | c1cc(-c2cn3c4c(nc3c(N3CCOCC3)n2)CCN(CC2CCOCC2)C4)c2cn[nH]c2c1 [2-09]

Same assay, conditions: PI3Kα; quantitative results; read-out: PI3K α IC50

Row | IC50 [nM] | Compound
26 | 603 | CCOC(=O)N1CCc2nc3c(N4CCOCC4)nc(-c4cnc(OC)nc4)c(Cl)n3c2C1 [2-27]
27 | 28 | COc1ccc(CNC(=O)N2CCc3nc4c(N5CCOCC5)nc(-c5cnc(N)nc5)cn4c3C2)cc1 [2-96]
28 | 75 | Nc1ncc(-c2cn3c4c(nc3c(N3CCOCC3)n2)CCN(C(=O)Nc2cccc(F)c2)C4)cn1 [2-91]
29 | 240 | COc1cccc(CN2CCc3nc4c(N5CCOCC5)nc(-c5cnc(N)nc5)cn4c3C2)c1 [2-95]
30 | 439 | c1ccc(CN2CCc3nc4c(N5CCOCC5)nc(-c5cccc6[nH]ncc56)cn4c3C2)nc1 [2-08]
31 | 257 | CCN1CCc2nc3c(N4CCOCC4)nc(-c4cnc(N)nc4)cn3c2C1 [2-45]
32 | 77 | CC(C)S(=O)(=O)N1CCc2nc3c(N4CCOCC4)nc(-c4cnc(N)nc4)cn3c2C1 [2-59]
33 | 125 | Nc1ncc(-c2cn3c4c(nc3c(N3CCOCC3)n2)CCN(Cc2ccncc2)C4)cn1 [2-107]
34 | 100 | COC(=O)N1CCc2nc3c(N4CCOCC4)nc(-c4cnc(N)nc4)cn3c2C1 [2-48]
35 | 1780 | CCOC(=O)N1CCc2nc3c(N4CCOCC4)nc(-c4cnc(N)c(C(F)(F)F)c4)c(Cl)n3c2C1 [2-33]
36 | 1780 | c1coc(CN2CCc3nc4c(N5CCOCC5)nc(-c5cccc6[nH]ncc56)cn4c3C2)c1 [2-11]
37 | 708 | c1cc(-c2cn3c4c(nc3c(N3CCOCC3)n2)CCN(Cc2ccoc2)C4)c2cn[nH]c2c1 [2-12]
38 | 175 | Nc1ncc(-c2cn3c4c(nc3c(N3CCOCC3)n2)CCN(Cc2ccnnc2)C4)cn1 [2-84]
39 | 363 | Nc1ncc(-c2cn3c4c(nc3c(N3CCOCC3)n2)CCN(CC2CCCCC2)C4)cn1 [2-37]
40 | 340 | Nc1ncc(-c2cn3c4c(nc3c(N3CCOCC3)n2)CCN(CC2CCCC2)C4)cn1 [2-80]
41 | 33 | CCCCS(=O)(=O)N1CCc2nc3c(N4CCOCC4)nc(-c4cnc(N)nc4)cn3c2C1 [2-55]

Row | IC50 [nM] | Compound
42 | 185 | Oc1cccc(-c2cn3c4c(nc3c(N3CCOCC3)n2)CCNC4)c1 [2-02]
43 | 94 | CCCC(=O)N1CCc2nc3c(N4CCOCC4)nc(-c4cnc(N)nc4)cn3c2C1 [2-86]
44 | 692 | CC(C)CN1CCc2nc3c(N4CCOCC4)nc(-c4cnc(N)nc4)cn3c2C1 [2-35]
45 | 852 | c1cc(-c2cn3c4c(nc3c(N3CCOCC3)n2)CCN(Cc2ccncc2)C4)c2cn[nH]c2c1 [2-07]
46 | 19 | N#CCCCS(=O)(=O)N1CCc2nc3c(N4CCOCC4)nc(-c4cnc(N)nc4)cn3c2C1 [2-77]
47 | 310 | Nc1ncc(-c2cn3c4c(nc3c(N3CCOCC3)n2)CCN(Cc2ccc(OC(F)(F)F)cc2)C4)cn1 [2-100]
48 | 724 | CCOC(=O)N1CCc2nc3c(N4CCOCC4)nc(-c4cnc(OC)nc4)cn3c2C1 [2-19]
49 | 550 | CC(C)C(=O)N1CCc2nc3c(N4CCOCC4)nc(-c4cnc(N)nc4)cn3c2C1 [2-43]
50 | 1050 | CCOC(=O)N1CCc2nc3c(N4CCOCC4)nc(-c4cnc5[nH]ccc5c4)cn3c2C1 [2-20]
51 | 2700 | CCOC(=O)N1CCc2nc3c(N4CCOCC4)nc(-c4cncc(OC)c4)cn3c2C1 [2-23]
52 | 148 | CCCNC(=O)N1CCc2nc3c(N4CCOCC4)nc(-c4cnc(N)nc4)c(Cl)n3c2C1 [2-54]
53 | 101 | Nc1ncc(-c2nc(N3CCOCC3)c3nc4c(n3c2Cl)CN(S(=O)(=O)c2ccccc2)CC4)cn1 [2-58]
54 | 1070 | CCOC(=O)N1CCc2nc3c(N4CCOCC4)nc(-c4cnc5[nH]ccc5c4)c(Cl)n3c2C1 [2-28]
55 | 207 | CCOC(=O)N1CCc2nc3c(N4CCOCC4)nc(-c4cccc(O)c4)cn3c2C1 [2-01, 3-(3-Hydroxy-phenyl)-1-morpholin-4-yl-7,8-dihydro-5H-2,4-a,6,9-tetraaza-fluorene-6-carboxylic acid ethyl ester]
56 | 238 | Nc1ncc(-c2cn3c4c(nc3c(N3CCOCC3)n2)CCN(C2CCCCC2)C4)cn1 [2-81]
57 | 3330 | CS(=O)(=O)c1cccc(CN2CCc3nc4c(N5CCOCC5)nc(-c5cccc6[nH]ncc56)cn4c3C2)c1 [2-15]

Same assay, conditions: quantitative results; read-out: PI3K α IC50

Row | IC50 [nM] | Compound
58 | 18 | Nc1ncc(-c2cn3c4c(nc3c(N3CCOCC3)n2)CN(S(=O)(=O)C2CCOCC2)CC4)cn1 [6-28]
59 | 409 | O=C1CCc2nc3c(N4CCOCC4)nc(-c4cccc(O)c4)cn3c2N1 [5-10]
60 | 14 | Nc1ncc(-c2cn3c4c(nc3c(N3CCOCC3)n2)CN(C(=O)Nc2cccc(F)c2)CC4)cn1 [6-45]
61 | 7 | Nc1ncc(-c2cn3c4c(nc3c(N3CCOCC3)n2)CCN(S(=O)(=O)C2CNC2)C4)cn1 [2-110]
62 | 79 | COCCC(=O)N1CCc2c(nc3c(N4CCOCC4)nc(-c4cnc(N)nc4)cn23)C1 [6-35]
63 | 23 | Nc1ncc(-c2cn3c4c(nc3c(N3CCOCC3)n2)CN(C(=O)C(F)(F)F)CC4)cn1 [6-14]
64 | 81 | N#Cc1cccc(NC(=O)N2CCc3nc4c(N5CCOCC5)nc(-c5cnc(N)nc5)cn4c3C2)c1 [2-113]
65 | 139 | Nc1ncc(-c2cn3c4c(nc3c(N3CCOCC3)n2)CCN(Cc2nccs2)C4)cn1 [2-111]
66 | 178 | CN(C)CCN1CCc2c(nc3c(N4CCOCC4)nc(-c4cnc(N)nc4)cn23)C1 [6-04]
67 | 22 | CCS(=O)(=O)N1CCc2c(nc3c(N4CCOCC4)nc(-c4cnc(N)nc4)cn23)C1 [6-20]
68 | 661 | CC1(C)Cc2nc3c(N4CCOCC4)nc(-c4cnc(N)nc4)cn3c2C(O)C1 (stereo not shown) [5-05]
69 | 90 | Nc1ncc(-c2cn3c4c(nc3c(N3CCOCC3)n2)CCN(C(=O)Nc2cc(Cl)cc(Cl)c2)C4)cn1 [2-112]
70 | 31 | N#CCCCS(=O)(=O)N1CCc2c(nc3c(N4CCOCC4)nc(-c4cnc(N)nc4)cn23)C1 [6-29]
71 | 100 | CC(C)NC(=O)N1CCc2c(nc3c(N4CCOCC4)nc(-c4cnc(N)nc4)cn23)C1 [6-22]
72 | 37 | CS(=O)(=O)c1ccccc1CN1CCc2nc3c(N4CCOCC4)nc(-c4cnc(N)nc4)cn3c2C1 [2-117]
73 | 290 | Nc1ncc(-c2nc(N3CCOCC3)c3nc4c(n3c2Cl)CCN(Cc2ccc(F)cc2)C4)cn1 [6-12]
